In patent publication US12246022B2, “Compositions and methods for treating, preventing or reversing age associated inflammation and disorders” (BROWN UNIVERSITY, priority 2019, dated 2025):
pIC50: −log10 of the molar value. Where two headings read alike, the source gives them in different places.

Tests used:
Assay type in all cases: cell-based
human LINE-1 = experiment: Human LINE-1 retrotransposition assay (dual luciferase pYX017 reporter, HeLa cells, Table 11)
Description: Assays were performed as described in Xie et al., 2011^151 with several modifications. The reporter assay was performed in 96 well white Optical bottom plates. 6000 HeLa cells were seeded in each well 24 hours prior transfection and compound treatment. All compounds were resuspended in DMSO. Stock solution concentrations varied from 50 mM to 1.25 mM depending of the solubility of the compound. Serial dilutions (1:3) were prepared in DMSO. Ten different concentrations of each compound were tested in triplicate. Medium containing different concentrations of the compounds were prepared by adding 2 μL of the compound dilution to 1 mL of the culture medium. The final concentration of DMSO in the medium was 0.2%. FuGENE® HD transfection reagent (Promega) was used to transfect the plasmid pYX016 into the cells. The transfection mix was prepared in OpiMEM (Thermo Fisher) using a reagent to DNA ratio of 3.5:1 according to manufacturer's instructions. Culture medium was removed from the cells and discarded. The transfection mix (5 μL) was mixed with the compound containing medium (100 μL/well) and this was added onto the cells of each well. Cells were incubated for 48H at 37° C./5% CO2. Luciferase reporter activity was quantified with the Dual-Luciferase® Reporter Assay System (Promega) according to manufacturer's instructions for multiwell plates with the following modification: Cells were lysed directly on the multiwell plate with 30 μL of the passive lysis buffer (PLB) for 20 min at room temperature, with gentle shaking to ensure complete cell lysis (instead of 20 μL of PLB for 15 min). Firefly and Renilla luciferase signals were measured using a SpectraMax i3x Multi-Mode Microplate Reader. […] Relative L1 activity was calculated as Firefly/Renilla *10,000. […] The experiment was performed twice, independently. […] Because the human construct yields a lower signal, compounds were incubated with cells for 72 hours instead of 48 hours, and cells were seeded at a density of 2000/well instead of 6000/well. In addition, the transfection reagent to DNA ratio was 2:1 instead of 3.5:1.

mouse LINE-1 = experiment: Mouse LINE-1 retrotransposition assay (dual luciferase pYX016 reporter, HeLa cells)
Description: Elvucitabine was obtained by custom synthesis. […] HeLa cervical cancer cells were cultivated at 37° C. in a humidified 5% CO2 incubator in Dulbecco's Modified Eagle's Medium (DMEM)-high glucose, with 4500 mg/L glucose, L-glutamine, sodium pyruvate and sodium bicarbonate (Sigma), supplemented with 10% of heat inactivated fetal bovine serum (Thermo Fisher). Assays were performed as described in Xie et al., 2011^151 with several modifications. The reporter assay was performed in 96 well white Optical bottom plates. 6000 HeLa cells were seeded in each well 24 hours prior transfection and compound treatment. All compounds were resuspended in DMSO. Stock solution concentrations varied from 50 mM to 1.25 mM depending of the solubility of the compound. Serial dilutions (1:3) were prepared in DMSO. Ten different concentrations of each compound were tested in triplicate. Medium containing different concentrations of the compounds were prepared by adding 2 μL of the compound dilution to 1 mL of the culture medium. The final concentration of DMSO in the medium was 0.2%. FuGENE® HD transfection reagent (Promega) was used to transfect the plasmid pYX016 into the cells. The transfection mix was prepared in OpiMEM (Thermo Fisher) using a reagent to DNA ratio of 3.5:1 according to manufacturer's instructions. Culture medium was removed from the cells and discarded. The transfection mix (5 μL) was mixed with the compound containing medium (100 μL/well) and this was added onto the cells of each well. Cells were incubated for 48H at 37° C./5% CO2. Luciferase reporter activity was quantified with the Dual-Luciferase® Reporter Assay System (Promega) according to manufacturer's instructions for multiwell plates with the following modification: Cells were lysed directly on the multiwell plate with 30 μL of the passive lysis buffer (PLB) for 20 min at room temperature, with gentle shaking to ensure complete cell lysis (instead of 20 μL of PLB for 15 min). Firefly and Renilla luciferase signals were measured using a SpectraMax i3x Multi-Mode Microplate Reader. […] Relative L1 activity was calculated as Firefly/Renilla *10,000. […] The experiment was performed twice, independently.

HeLa cells = experiment: Cell viability assay (CellTiter-Glo); details: doses up to 2 μM
Description: As described above, the toxicity of RTIs could impair their ability to halt or block the harmful effects of senescent cells and their ability to prevent or reverse age-related inflammation and disorders.
HeLa cells were treated with the different concentrations of the eight RTI compounds for 48 hours. Cell viability was measured with CellTiter-Glo® luminescent cell viability assay (Promega®) and presented as percentage of cell viability versus untreated cells. Staurosporine, known to induce cell death, was used as a control.

In the case of `Nc1nc(=O)n([C@@H]2C=C[C@H](CO)O2)cc1F` [Elvucitabine], the pIC50 (human LINE-1; pYX017, 72 H post-transfection, read-out: Human L1 activity inhibition IC50, Exp. 1) was 7.03, the pIC50 (human LINE-1; read-out: human L1 inhibition IC50) was ~7.00 and the pIC50 (mouse LINE-1; pYX016, 48 H post-transfection, read-out: Mouse L1 activity inhibition IC50, Exp. 1) was 6.94. For the same compound, the pIC50 (mouse LINE-1; pYX016, 48 H post-transfection, read-out: Mouse L1 activity inhibition IC50, Exp. 2) was 6.97, the pIC50 (mouse LINE-1; pYX016, 48 H, n = 2, read-out: Mouse L1 activity inhibition IC50, Average) was 6.95 and the pIC50 (mouse LINE-1; read-out: mouse L1 inhibition IC50) was ~7.00. For the same compound, the “toxicity in the cell viability assay” value (HeLa cells) was “without inducing toxicity”.
